How the values were obtained:
[1] = biological target: Histone-lysine N-methyltransferase, H3 lysine-36 specific (Homo sapiens) (UniProt Q96L73); settings: at 1 µM
[2] = test system: Leucine-rich repeat serine/threonine-protein kinase 2 (Homo sapiens), Q5S007 [G2019S]; experiment: (§1) Selectivity interaction (KinomeScan (DiscoverX)) EUB0000229b LRRK2; settings: at 1 µM
[3] = biological target: Leucine-rich repeat serine/threonine-protein kinase 2 (Homo sapiens, UniProt Q5S007); experiment: as §1; settings: at 10 µM
[4] = biological target: Calcium/calmodulin-dependent protein kinase type II subunit gamma (Homo sapiens) (UniProt Q13555); experiment: Selectivity interaction (KinomeScan (DiscoverX)) EUB0001079a CAMK2G; settings: at 1 µM
[5] = biological target: Platelet-derived growth factor receptor beta (Homo sapiens, UniProt P09619); experiment: Selectivity interaction (KinomeScan (DiscoverX)) EUB0000699a PDGFRB; settings: at 10 µM
[6] = biological target: T1, Protein kinase C iota type (Homo sapiens) (UniProt P41743); experiment: Selectivity interaction (ActivX KiNativ screen (kinase selectivity in THP-1 cell lysates)) EUB0000639a PRKCI; type: subcellular; settings: lysate, at 5 µM
T1 sequence (whole entry): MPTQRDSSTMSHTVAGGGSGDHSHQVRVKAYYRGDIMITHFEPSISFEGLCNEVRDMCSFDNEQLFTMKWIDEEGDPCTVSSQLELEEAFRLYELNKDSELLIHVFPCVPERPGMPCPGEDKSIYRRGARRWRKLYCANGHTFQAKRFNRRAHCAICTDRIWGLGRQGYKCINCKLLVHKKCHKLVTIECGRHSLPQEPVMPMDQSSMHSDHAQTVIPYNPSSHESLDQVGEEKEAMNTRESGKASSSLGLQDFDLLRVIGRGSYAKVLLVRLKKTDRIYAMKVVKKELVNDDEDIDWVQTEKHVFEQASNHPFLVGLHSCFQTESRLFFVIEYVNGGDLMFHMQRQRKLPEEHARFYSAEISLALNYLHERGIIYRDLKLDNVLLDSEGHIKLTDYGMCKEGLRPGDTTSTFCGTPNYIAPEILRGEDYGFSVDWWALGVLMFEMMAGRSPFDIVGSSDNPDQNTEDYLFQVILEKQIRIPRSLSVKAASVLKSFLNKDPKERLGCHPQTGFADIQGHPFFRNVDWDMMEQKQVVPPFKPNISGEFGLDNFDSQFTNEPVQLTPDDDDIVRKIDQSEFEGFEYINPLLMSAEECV

[7] = biological target: Serine/threonine-protein kinase PAK 1 (Homo sapiens) (UniProt Q13153); experiment: Selectivity interaction (KinomeScan (DiscoverX)) EUB0000618a PAK1; settings: at 10 µM
[8] = biological target: T2, Phosphatidylinositol 4,5-bisphosphate 3-kinase catalytic subunit delta isoform (Homo sapiens) (UniProt O00329); experiment: Selectivity interaction (KinomeScan (DiscoverX)) EUB0000655a PIK3CD; settings: at 10 µM
T2 sequence (whole entry): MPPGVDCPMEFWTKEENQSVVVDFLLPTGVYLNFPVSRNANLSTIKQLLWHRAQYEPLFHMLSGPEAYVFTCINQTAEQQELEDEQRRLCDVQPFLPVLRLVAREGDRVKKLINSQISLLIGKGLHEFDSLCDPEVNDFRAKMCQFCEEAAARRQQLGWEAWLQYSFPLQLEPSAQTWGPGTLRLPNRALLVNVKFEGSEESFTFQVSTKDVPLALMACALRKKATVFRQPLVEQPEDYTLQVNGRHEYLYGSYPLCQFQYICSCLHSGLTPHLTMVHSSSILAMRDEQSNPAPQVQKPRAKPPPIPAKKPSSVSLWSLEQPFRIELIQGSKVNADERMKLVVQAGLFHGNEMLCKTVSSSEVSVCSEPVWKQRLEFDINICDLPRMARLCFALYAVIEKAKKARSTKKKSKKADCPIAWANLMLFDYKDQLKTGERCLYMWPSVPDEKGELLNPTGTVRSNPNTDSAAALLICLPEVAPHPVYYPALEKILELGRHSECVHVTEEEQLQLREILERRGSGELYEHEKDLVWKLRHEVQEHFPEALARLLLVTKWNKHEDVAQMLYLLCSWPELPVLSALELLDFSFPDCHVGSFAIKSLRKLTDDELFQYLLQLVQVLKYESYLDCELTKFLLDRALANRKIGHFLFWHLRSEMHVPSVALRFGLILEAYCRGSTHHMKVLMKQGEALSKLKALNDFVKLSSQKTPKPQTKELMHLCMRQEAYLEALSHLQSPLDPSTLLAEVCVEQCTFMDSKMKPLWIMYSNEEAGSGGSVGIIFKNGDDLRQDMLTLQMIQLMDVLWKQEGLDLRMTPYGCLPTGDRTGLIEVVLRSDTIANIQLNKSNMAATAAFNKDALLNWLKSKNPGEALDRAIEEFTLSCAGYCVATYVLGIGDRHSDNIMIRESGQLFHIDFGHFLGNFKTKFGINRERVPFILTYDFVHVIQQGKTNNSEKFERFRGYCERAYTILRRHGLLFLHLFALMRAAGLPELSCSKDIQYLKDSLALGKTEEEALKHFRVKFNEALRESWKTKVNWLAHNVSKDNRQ

[9] = biological target: Vascular endothelial growth factor receptor 3 (Homo sapiens, UniProt P35916); experiment: Selectivity interaction (KinomeScan (DiscoverX)) EUB0000655a FLT4; settings: at 10 µM
[10] = biological target: Myosin light chain kinase, smooth muscle (Homo sapiens, UniProt Q15746); experiment: Selectivity interaction (KinomeScan (DiscoverX)) EUB0000607a MYLK; settings: at 10 µM
[11] = biological target: Acetylcholine receptor subunit alpha (Homo sapiens, UniProt P02708); experiment: Selectivity interaction (Panel of kinases, GPCRs, ion channels and transporters (enzymatic assay)) EUB0000223bCl CHRNA1
[12] = biological target: Phosphatidylinositol 4,5-bisphosphate 3-kinase catalytic subunit gamma isoform (Homo sapiens) (UniProt P48736); experiment: Selectivity interaction (ProQinase) EUB0000171b PIK3CG
Chain of Phosphatidylinositol 4,5-bisphosphate 3-kinase catalytic subunit gamma isoform (Homo sapiens) (P48736 whole entry, looked up, canonical isoform): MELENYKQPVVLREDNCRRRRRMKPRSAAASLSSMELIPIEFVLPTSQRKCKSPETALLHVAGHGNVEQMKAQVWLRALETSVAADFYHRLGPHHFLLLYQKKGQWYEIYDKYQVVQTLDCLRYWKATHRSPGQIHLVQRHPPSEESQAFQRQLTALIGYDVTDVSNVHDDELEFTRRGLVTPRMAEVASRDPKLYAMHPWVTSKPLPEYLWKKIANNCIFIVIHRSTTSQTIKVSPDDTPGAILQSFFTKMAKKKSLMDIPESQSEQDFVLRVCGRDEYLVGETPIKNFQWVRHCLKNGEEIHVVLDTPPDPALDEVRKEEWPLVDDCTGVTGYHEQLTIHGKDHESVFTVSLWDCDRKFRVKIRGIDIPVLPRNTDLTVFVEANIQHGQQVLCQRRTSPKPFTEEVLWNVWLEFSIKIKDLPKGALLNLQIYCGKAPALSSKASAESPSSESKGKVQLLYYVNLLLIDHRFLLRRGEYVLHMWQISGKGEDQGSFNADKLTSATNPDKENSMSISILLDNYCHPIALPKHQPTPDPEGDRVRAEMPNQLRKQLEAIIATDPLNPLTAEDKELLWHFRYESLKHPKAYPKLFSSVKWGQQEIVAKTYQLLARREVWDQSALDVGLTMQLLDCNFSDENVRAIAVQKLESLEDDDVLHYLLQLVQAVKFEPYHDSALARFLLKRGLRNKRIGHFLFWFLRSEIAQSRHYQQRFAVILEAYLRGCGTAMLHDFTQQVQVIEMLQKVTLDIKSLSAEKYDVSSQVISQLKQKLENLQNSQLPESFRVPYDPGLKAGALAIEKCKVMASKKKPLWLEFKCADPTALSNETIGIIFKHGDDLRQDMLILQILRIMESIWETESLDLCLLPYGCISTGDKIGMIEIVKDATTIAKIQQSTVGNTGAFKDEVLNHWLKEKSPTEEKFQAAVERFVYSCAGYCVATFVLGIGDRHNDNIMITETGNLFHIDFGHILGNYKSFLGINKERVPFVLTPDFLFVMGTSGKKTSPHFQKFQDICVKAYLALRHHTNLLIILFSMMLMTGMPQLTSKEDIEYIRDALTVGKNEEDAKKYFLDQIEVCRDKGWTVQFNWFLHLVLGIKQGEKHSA

Chain of Myosin light chain kinase, smooth muscle (Q15746 whole entry): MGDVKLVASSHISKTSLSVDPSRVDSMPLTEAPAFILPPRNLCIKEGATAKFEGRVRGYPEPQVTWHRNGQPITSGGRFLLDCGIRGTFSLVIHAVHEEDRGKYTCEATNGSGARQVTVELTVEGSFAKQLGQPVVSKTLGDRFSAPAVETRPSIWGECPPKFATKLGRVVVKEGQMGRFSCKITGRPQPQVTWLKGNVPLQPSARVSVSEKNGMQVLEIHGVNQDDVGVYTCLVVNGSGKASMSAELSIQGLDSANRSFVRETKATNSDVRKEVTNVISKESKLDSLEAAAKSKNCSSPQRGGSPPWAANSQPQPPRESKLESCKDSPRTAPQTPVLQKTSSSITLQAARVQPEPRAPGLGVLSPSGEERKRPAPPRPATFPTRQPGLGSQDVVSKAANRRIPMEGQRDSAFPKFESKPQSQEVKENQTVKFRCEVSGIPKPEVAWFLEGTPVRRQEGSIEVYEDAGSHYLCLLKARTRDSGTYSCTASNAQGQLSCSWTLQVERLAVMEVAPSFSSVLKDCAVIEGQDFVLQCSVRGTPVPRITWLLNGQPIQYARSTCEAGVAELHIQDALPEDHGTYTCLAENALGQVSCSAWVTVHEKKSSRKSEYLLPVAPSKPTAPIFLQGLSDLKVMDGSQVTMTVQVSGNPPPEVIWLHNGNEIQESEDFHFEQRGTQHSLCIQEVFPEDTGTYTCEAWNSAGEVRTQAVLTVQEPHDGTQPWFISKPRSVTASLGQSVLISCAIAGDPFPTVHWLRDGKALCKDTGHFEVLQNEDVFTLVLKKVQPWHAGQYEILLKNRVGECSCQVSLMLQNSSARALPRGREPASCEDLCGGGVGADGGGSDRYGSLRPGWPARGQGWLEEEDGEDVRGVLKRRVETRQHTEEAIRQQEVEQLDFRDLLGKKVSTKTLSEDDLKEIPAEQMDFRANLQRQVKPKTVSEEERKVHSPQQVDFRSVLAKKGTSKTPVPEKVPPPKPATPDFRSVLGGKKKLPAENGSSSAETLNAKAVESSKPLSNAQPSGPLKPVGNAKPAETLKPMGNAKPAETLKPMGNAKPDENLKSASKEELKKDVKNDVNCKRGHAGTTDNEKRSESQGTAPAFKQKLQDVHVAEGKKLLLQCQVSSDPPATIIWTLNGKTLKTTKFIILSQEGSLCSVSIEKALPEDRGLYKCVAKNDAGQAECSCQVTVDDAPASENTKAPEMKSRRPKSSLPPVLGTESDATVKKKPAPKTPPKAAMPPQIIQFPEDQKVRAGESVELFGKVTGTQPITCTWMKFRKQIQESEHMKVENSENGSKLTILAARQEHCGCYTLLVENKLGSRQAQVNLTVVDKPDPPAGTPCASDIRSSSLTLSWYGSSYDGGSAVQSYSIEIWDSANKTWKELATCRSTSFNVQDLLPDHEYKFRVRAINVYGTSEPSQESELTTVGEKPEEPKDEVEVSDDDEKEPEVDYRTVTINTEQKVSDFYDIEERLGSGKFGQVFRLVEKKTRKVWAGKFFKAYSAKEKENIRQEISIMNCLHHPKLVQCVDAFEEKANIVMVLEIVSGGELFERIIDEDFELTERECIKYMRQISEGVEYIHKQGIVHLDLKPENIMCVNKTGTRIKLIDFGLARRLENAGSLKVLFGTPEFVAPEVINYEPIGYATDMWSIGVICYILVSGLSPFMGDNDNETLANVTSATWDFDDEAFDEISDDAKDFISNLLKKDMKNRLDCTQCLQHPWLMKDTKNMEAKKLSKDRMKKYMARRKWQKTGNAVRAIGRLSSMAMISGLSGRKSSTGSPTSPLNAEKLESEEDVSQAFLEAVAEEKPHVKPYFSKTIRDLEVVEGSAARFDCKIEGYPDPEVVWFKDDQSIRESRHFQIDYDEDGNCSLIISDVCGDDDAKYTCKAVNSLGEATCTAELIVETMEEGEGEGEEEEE
Chain of Vascular endothelial growth factor receptor 3 (P35916 whole entry): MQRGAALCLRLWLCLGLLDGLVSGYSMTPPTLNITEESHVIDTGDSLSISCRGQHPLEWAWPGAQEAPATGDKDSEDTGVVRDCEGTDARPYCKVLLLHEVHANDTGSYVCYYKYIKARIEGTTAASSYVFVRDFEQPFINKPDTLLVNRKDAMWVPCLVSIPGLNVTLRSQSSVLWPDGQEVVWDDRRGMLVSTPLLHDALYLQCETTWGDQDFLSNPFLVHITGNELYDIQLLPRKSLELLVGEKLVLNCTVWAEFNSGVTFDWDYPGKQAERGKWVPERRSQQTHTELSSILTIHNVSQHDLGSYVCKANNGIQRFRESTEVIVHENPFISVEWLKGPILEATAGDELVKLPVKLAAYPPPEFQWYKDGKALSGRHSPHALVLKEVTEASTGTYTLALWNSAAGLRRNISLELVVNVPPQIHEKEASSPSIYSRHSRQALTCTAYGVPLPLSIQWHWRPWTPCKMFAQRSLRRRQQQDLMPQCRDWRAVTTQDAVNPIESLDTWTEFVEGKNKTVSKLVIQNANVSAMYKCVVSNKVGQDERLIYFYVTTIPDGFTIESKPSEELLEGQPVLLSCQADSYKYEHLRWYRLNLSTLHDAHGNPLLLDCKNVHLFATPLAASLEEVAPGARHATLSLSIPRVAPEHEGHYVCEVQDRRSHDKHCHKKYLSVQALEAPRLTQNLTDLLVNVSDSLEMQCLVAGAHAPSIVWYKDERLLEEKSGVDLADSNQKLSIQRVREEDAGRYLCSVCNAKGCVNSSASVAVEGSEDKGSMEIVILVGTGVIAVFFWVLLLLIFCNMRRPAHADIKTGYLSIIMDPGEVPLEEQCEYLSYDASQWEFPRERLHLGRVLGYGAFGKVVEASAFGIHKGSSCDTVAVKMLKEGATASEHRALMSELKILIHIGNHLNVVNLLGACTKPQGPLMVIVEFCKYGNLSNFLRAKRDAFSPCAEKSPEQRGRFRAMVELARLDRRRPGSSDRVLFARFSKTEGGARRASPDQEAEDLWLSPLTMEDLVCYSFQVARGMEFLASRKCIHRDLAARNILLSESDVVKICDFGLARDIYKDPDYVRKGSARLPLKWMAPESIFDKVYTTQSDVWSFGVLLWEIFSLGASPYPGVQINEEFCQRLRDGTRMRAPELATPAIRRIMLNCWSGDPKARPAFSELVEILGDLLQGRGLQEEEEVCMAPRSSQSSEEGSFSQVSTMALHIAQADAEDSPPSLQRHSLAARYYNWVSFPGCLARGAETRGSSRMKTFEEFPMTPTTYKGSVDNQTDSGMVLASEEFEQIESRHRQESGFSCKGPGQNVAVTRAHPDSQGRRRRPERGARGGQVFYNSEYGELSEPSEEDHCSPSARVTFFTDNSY
Chain of Acetylcholine receptor subunit alpha (P02708 whole entry, canonical isoform): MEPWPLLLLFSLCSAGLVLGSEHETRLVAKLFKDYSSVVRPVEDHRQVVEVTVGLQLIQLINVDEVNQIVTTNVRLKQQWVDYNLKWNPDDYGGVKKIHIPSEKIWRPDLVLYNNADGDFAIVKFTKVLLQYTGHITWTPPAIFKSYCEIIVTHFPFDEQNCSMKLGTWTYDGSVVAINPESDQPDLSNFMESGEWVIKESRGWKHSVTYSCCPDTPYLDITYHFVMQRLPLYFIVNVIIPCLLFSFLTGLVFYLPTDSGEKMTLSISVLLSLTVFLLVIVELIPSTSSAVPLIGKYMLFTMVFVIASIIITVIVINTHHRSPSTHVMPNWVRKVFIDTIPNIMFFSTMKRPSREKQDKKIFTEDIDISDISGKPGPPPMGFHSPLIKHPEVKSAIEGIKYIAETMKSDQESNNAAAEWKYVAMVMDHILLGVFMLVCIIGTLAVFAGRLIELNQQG

How did the % activity [1] turn out when CNCCN1CCC(c2cc(CN(C)C(=O)c3cccc(Oc4ccccc4)c3)ccn2)CC1 was run?
The % activity was greater than 90%.

Which results are given for COc1cc(N(C)c2ccnc3ccc(C(F)(F)F)cc23)cc(OC)c1OC?
% binding [2]: 100%; % binding [3]: 100%

Nc1cnc(N2CCc3cc(S(=O)(=O)Nc4c(F)cc(Cl)cc4F)cc(N4CCCC4=O)c32)nc1 [TP-020n] was tested. Which % of control [4] did it give?
The % of control was 100%.

For CCN(CC)CCCCNc1ncc2cc(-c3cc(OC)cc(OC)c3)c(NC(=O)NC(C)(C)C)nc2n1, which % of control [5] is on record?
The % of control was 38%.

Which % of inhibition [6] does the source give for CC[C@@H]1[C@H](F)C(=O)N[C@@H]1COc1nccc2cc(C(N)=O)c(OC)cc12 [ZIMLOVISERTIB] here?
The % of inhibition was 14.6%.

How did the % of control [7] turn out when O[C@H]1CC[C@H](Nc2ncc3nc(Nc4c(F)cc(F)cc4F)n([C@H]4CCOC4)c3n2)CC1 was run?
Its % of control is 99%.

Which % of control [8] does the source give for CN(C)CCOc1ccc(-c2nc(-c3ccncc3)c(-c3ccc4c(c3)CC/C4=N\O)[nH]2)cc1 here?
The % of control was 79%.

What about the % of control [9] of the same compound?
Its % of control is 100%.

For CNC(=O)Nc1ccc(-c2nc(N3CC4CCC(C3)O4)c3cnn(C4CCC5(CC4)OCCO5)c3n2)cc1, which % of control [10] is on record?
The % of control was 100%.

How did the pXC50 [11] turn out when COc1cc(C(=O)N2CC[C@@H](O)[C@@H](N)C2)cc2nc(-c3cc4ccccc4n3CC3CC3)n(C)c12 was run?
The pXC50 was 5.8 M.

How did the % of control ([12]; at 1 µM) turn out when C=CC(=O)Nc1cccc(C(=O)Nc2ccc(Nc3cc(-c4[nH]c(SC)nc4C)ccn3)cc2)c1 was run?
The % of control was 176%.

What about the % of control ([12]; at 5 µM) of the same compound?
Its % of control is 156%.

Source: ChEMBL document CHEMBL5465560, “Selectivity Literature for EUbOPEN Chemogenomic Library” (2024)
